These compounds were tested on Glo-Response ARE-luc2P HEK293 cell line (assay: ARE luciferase reporter cell-based assay). Details: 24 hours, average of results obtained.
`Cc1cnc2c(c1)S(=O)(=O)N(Cc1cc([C@@H](c3ccn4c(C(F)(F)F)nnc4c3C)C(C)(C)C(=O)O)ccc1C)CC1(CCOCC1)O2` (single isomer, unassigned) [Example 407, (*S)-2,2-dimethyl-3-(4-methyl-3-((8′-methyl-1′,1′-dioxido-2,3,5,6-tetrahydrospiro[pyran-4,4′-pyrido[2,3-b][1,4,5]oxathiazepin]-2′(3′H)-yl)methyl)phenyl)-3-(8-methyl-3-(trifluoromethyl)-[1,2,4]triazolo[4,3-a]pyridin-7-yl)propanoic Acid] showed an EC50 of 1.47 nM.

Same assay, conditions: Homo sapiens, HEK293, 24 h, average of results obtained
`Cc1cc2cc([C@@H](c3ccc(C)c(CN4CC5(CC5)Oc5nc(OCCN6CCCC6)c(C)cc5S4(=O)=O)c3)C(C)(C)C(=O)O)n(C)c2nn1` (single isomer, unassigned) [Example 352, (*S)-3-(3,7-Dimethyl-7H-pyrrolo[2,3-c]pyridazine-6-yl)-2,2-dimethyl-3-(4-methyl-3-((8′-methyl-1′,1′-dioxido-7′-(2-(pyrrolidin-1-yl)-ethoxy)spiro[cyclopropane-1,4′-pyrido[2,3-b][1,4,5]oxathiazepin]-2′,(3′H)-yl)methyl)phenyl)propanoic Acid] gave an EC50 of 43.7 nM. `Cc1cc2cc([C@H](c3ccc(C)c(CN4CC5(CC5)Oc5nc(OCCN6CCCC6)c(C)cc5S4(=O)=O)c3)C(C)(C)C(=O)O)n(C)c2nn1` (single isomer, unassigned) [Example 353, (*R)-3-(3,7-Dimethyl-7H-pyrrolo[2,3-c]pyridazine-6-yl)-2,2-dimethyl-3-(4-methyl-3-((8′-methyl-1′,1′-dioxido-7′-(2-(pyrrolidin-1-yl)-ethoxy)spiro[cyclopropane-1,4′-pyrido[2,3-b][1,4,5]oxathiazepin]-2′-(3′H)-yl)methyl)phenyl)propanoic Acid] showed an EC50 of 1410 nM. With `Cc1ccc([C@H](CC(=O)O)c2ccn3c(C(F)(F)F)nnc3c2C)cc1CN1CC2(CCOCC2)Oc2ncc(F)cc2S1(=O)=O` (single isomer, unassigned) [Example 414, (*S)-3-(3-((8′-fluoro-1′,1′-dioxido-2,3,5,6-tetrahydrospiro[pyran-4,4′-pyrido[2,3-b][1,4,5]oxathiazepin]-2′(3′H)-yl)methyl)-4-methylphenyl)-3-(8-methyl-3-(trifluoromethyl)-[1,2,4]triazolo[4,3-a]pyridin-7-yl)propanoic Acid] the EC50 was 11 nM. With `Cc1ccc([C@H](CC(=O)O)c2ccn3c(C(F)(F)F)nnc3c2C)cc1CN1CC2(CCOCC2)Oc2ccc(F)cc2S1(=O)=O` (single isomer, unassigned) [Example 415, (*S)-3-(3-((8-fluoro-1,1-dioxido-2′,3′,5′,6′-tetrahydrospiro[benzo[b][1,4,5]oxathiazepine-4,4′-pyran]-2(3H)-yl)methyl)-4-methylphenyl)-3-(8-methyl-3-(trifluoromethyl)-[1,2,4]triazolo[4,3-a]pyridin-7-yl)propanoic Acid] the EC50 was 5.1 nM. Compound `Cc1ccc([C@@H](c2ccn3c(C(F)(F)F)nnc3c2C)C(C)C(=O)O)cc1CN1CC2(CCOCC2)Oc2ccc(F)cc2S1(=O)=O` (single isomer, unassigned) [Example 416, (3S*)-3-(3-((8-fluoro-1,1-dioxido-2′,3′,5′,6′-tetrahydrospiro[benzo[b][1,4,5]oxathiazepine-4,4′-pyran]-2(3H)-yl)methyl)-4-methylphenyl)-2-methyl-3-(8-methyl-3-(trifluoromethyl)-[1,2,4]triazolo[4,3-a]pyridin-7-yl)propanoic Acid] has an EC50 of 2.53 nM. Work on `CCn1nnc2c(C)c([C@H](c3ccc(C)c(CN4CC5(CCOCC5)Oc5ncc(C)cc5S4(=O)=O)c3)C(C)(C)C(=O)O)ccc21` (single isomer, unassigned) [Example 421, (*R)-3-(1-ethyl-4-methyl-1H-benzo[d][1,2,3]triazol-5-yl)-2,2-dimethyl-3-(4-methyl-3-((8′-methyl-1′,1′-dioxido-2,3,5,6-tetrahydrospiro[pyran-4,4′-pyrido[2,3-b][1,4,5]oxathiazepin]-2′(3′H)-yl)methyl)phenyl)propanoic Acid] yielded an EC50 of 0.24 nM.

— patent US10947252B2, “Inhibitors of KEAP1-Nrf2 protein-protein interaction” (Janssen Pharmaceutica NV, priority 2018, dated 2021)
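Note: luciferase signal tracks Nrf2 activation of the ARE once compounds disrupt KEAP1-Nrf2 binding, read with One-Glo reagent, DMSO serving as low control.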
